Like-named read-outs stand apart in the source and are kept apart here.
Key:
[1] = system: female adult stegomyia mosquitoes (Aedes albopictus); assay: Comparative debugging efficaciousness tests: bloodsucking prevention on rats, liquid type electric mosquito repellent utensil; format: in vivo; details: for efficacy of preventing mosquitoes from bloodsucking rats compared with transfluthrin: comparison in words; for Potency Ratio (Etoc 100), of IC50 Value / Potency Ratio (Etoc 100), of IC90 Value: relative to d,d-T80-prallethrin (Etoc) = 100
Procedure: First, debugging efficaciousness tests were performed. For the criterion of judgment to compare degrees of efficaciousness, the effect of bloodsucking by mosquitoes of rats was adopted. Based on this, the following efficaciousness tests were carried out.
Comparative Debugging Efficaciousness Tests
Sample chemicals that were used were as follows: d,d-T80-prallethrin, transfluthrin, d1,d-T80-allethrin, d-T80-furamethrin, terallethrin and empenthrin; and pyrethroid technical products (sample chemicals) A, B, C, D, E, F, G and H.
Sample insects that were used were as follows: female adult stegomyia mosquitoes (Aedes albopictus) of Fumakilla (spelled phonetically) series 6th to 9th after emergence.
Sample chemical volatilizing form: A liquid type electric mosquito repellent utensil, a liquid agent (referred to below as “sample liquid”), obtained by diluting each of the sample chemicals with a solvent in a varying concentration, was allowed to volatilize.
Method used for tests: A test was conducted in two 8 straw mat (13.2 m^2) rooms, one as a treatment zone and the other as a non-treatment zone, both in a no-wind state and at a constant room temperature of 32° C.
In the treatment zone, three cages each with a rat confined therein were placed equidistantly spaced apart (about 20 cm) in the center of the test room. The mosquito repellent utensil placed on the floor surface of the center of the test room was preliminarily electrically energized for operation, and to thermally volatilize each of the sample liquids and fumigate the room therewith for a period of 30 minutes, and then about 100 (one hundred) of sample mosquitoes were released into the test room. After two hours following the release of the mosquitoes, all these sample mosquitoes were knocked-down by using a mosquito repellent mat, and the number of the mosquitoes which had bloodsucking was counted to find the proportion of bloodsucking.
In the non-treatment zone, also, after the 2 hours of bloodsucking, the proportion of bloodsucking was found.
A rate of bloodsucking prevention was derived from the proportions of bloodsucking in the treatment and non-treatment rooms as expressed by the following equation:
Rate of bloodsucking prevention =[(Total bloodsucking proportion in the non-treatment zone−Total bloodsucking proportion in the treatment zone)÷Total bloodsucking proportion in the non-treatment zone]×100
Also, on the basis of these amounts of volatilization and rates of bloodsucking prevention, an amount of volatilization at a 50% rate of bloodsucking prevention (IC50 value) and an amount of volatilization at a 90% rate of bloodsucking prevention (IC90 value) are found and shown in Table 1 below.

[2] = Comparative vapor pressure tests by gas chromatography; format: physicochemical
Procedure: 2. Comparative Vapor Pressure Tests
Next, by using gas chromatography, the various chemicals including sample chemicals A, B and C screened out by the foregoing comparative debugging efficaciousness tests were compared with d,d-T80-prallethrin (Etoc) as regards to their vapor pressures.
The gas chromatography test included as its temperature conditions an initial temperature of 60° C., and a temperature rise of 5° C. per minute up to a maximum temperature of 250° C., which was held for a period of 5 minutes, whereupon the process ended.
The filler used was made up of methyl silicon polymer, which is non-polar.
It should also be noted that as an internal standard substance use was made of sebacic acid-n-butyl and which was added to confirm that there was no deviation in retention time from one test to another.
Retention times for the various chemicals are listed in Table 2 in the order of shorter to longer.

[3] = system: female adult common house mosquitoes (Culex pipiens pallens); assay: Example 1: spontaneous volatilization efficaciousness test in 33 m^3 room (knockdown, KT50); format: in vivo; details: for potency and retention of potency compared with transfluthrin: comparison in words
From the text: Using sample chemicals A, B and C screened out by the preliminary tests, the efficaciousness of each of them when allowed to volatilize spontaneously was compared with that of transfluthrin when allowed to volatilize spontaneously.
Sample Preparations (Chemicals and Their Carriers According to the Present Invention):
(§1) A non-woven polypropylene fabric (made by Idemitsu Petroleum Chemicals Co., Ltd., product name RW2100, density 100 grams/m^2) of 50 cm×40 cm was coated with a hexane solution of 100 milliliter containing 1% (W/V) sample chemicals A, B, C and left to dry for 24 hours (effective amount of chemical: 1000 milligrams).
Comparative Preparation (Chemical and its Carrier):
as §1, with “of transfluthrin” for “sample chemicals A, B, C”
Testing Method: Efficaciousness Tests in an 8 Straw Mat room with a volume of 33 m^3
In the center of the test room with a volume of 33 m^3 (3.65 m×3.65 m×2.5 m high), each chemical carrier as prepared as above was placed as hung on a hook suspended in the center of the room to let the corresponding chemical volatilize spontaneously for a period of 3 hours. Thereafter, a triangular net casing (20 cm×20 cm×16.4 cm high) of 16 mesh nylon net containing 10 (ten) female adult common house mosquitoes (Culex pipiens pallens) was placed as hung in an area at each of the four corners (spaced from the wall surfaces at a distance of 90 cm) at a height of 150 cm from the room floor and was exposed to the chemical atmosphere.
A test was also conducted likewise for the comparative carrier.
After the tests ended, the samples chemicals were let to volatilize spontaneously in the room having a constant temperature of 30° C. The same test was repeated at given intervals and efficaciousness was then examined each time.

[4] = 60° C. initial, 5° C. per minute up to 250° C., non-polar methyl silicon polymer filler
[5] = 13.2 m^2 room, 32° C., 30 min pre-fumigation, 2 hours after release, rats

For CC=CC1C(C(=O)OCc2c(F)c(F)c(COC)c(F)c2F)C1(C)C (centres unmarked) [Sample Chemical A, 2,3,5,6-tetrafluoro-4-methoxymethylbenzyl 3-(1-propenyl)-2,2-dimethylcyclopropanecarboxylate], the “efficacy of preventing mosquitoes from bloodsucking rats compared with transfluthrin” value (“efficacy … compared with transfluthrin” below) [1] was “more efficacious than transfluthrin”, the “Potency Ratio (Etoc 100), of IC50 Value” [1] was 197.1 and the “Potency Ratio (Etoc 100), of IC90 Value” [1] was 496.8. The “Retention Time (gas chromatography, as comparison of vapor pressure)” value (from here on “Retention Time”) [2, 4] was 25.1 min, the “vapor pressure compared with transfluthrin and d,d-T80-prallethrin” value ([2]; from GC retention times) was “lower than transfluthrin, but higher than d,d-T80-prallethrin” and the “potency and retention of potency compared with transfluthrin” value [3] was “higher in potency and also longer in retention time than transfluthrin”. It also gave a KT50 ([3]; elapsed time 0 hr) of 6.53 min, a KT50 ([3]; elapsed time 168 hr) of 4.52 min and a KT50 ([3]; elapsed time 336 hr) of 5.38 min. The KT50 ([3]; elapsed time 504 hr) was 6.28 min, the KT50 ([3]; elapsed time 672 hr) was 7.25 min and the KT50 ([3]; elapsed time 864 hr) was 9.60 min. For the same molecule, the KT50 ([3]; elapsed time 1056 hr) was 8.50 min, the KT50 ([3]; elapsed time 1200 hr) was 8.80 min and the KT50 ([3]; elapsed time 1344 hr) was 9.70 min. The KT50 ([3]; elapsed time 1536 hr) was 8.97 min, the KT50 ([3]; elapsed time 1680 hr) was 11.60 min and the KT50 ([3]; elapsed time 1848 hr) was 12.50 min. It also gave a KT50 ([3]; elapsed time 2016 hr) of 11.50 min, a KT50 ([3]; elapsed time 2208 hr) of 13.60 min and a KT50 ([3]; elapsed time 2352 hr) of 16.80 min. The KT50 ([3]; elapsed time 2520 hr) was 17.20 min, the KT50 ([3]; elapsed time 2688 hr) was 18.60 min and the KT50 ([3]; elapsed time 2856 hr) was 17.70 min. It also gave a KT50 ([3]; elapsed time 3024 hr) of 24.60 min, a KT50 ([3]; elapsed time 3192 hr) of 27.80 min and a KT50 ([3]; elapsed time 3360 hr) of 31.60 min.

With C#CC(OC(=O)C1C(C=C(Cl)Cl)C1(C)C)C(F)=CCC (centres unmarked) [Sample Chemical B, 1-ethnyl-2-fluoro-2-pentenyl 3-(2,2-dichlorovinyl)-2,2-dimethylcyclopropanecarboxylate] the “IC50 Value (amount of volatilization at a 50% rate of bloodsucking prevention)” value [1, 5] was 0.0047 mg/h, the “IC90 Value (amount of volatilization at a 90% rate of bloodsucking prevention)” value [1, 5] was 0.0083 mg/h and the “efficacy … compared with transfluthrin” value [1] was “more efficacious than transfluthrin”. For the same molecule, the “Potency Ratio (Etoc 100), of IC50 Value” [1] was 172.3, the “Potency Ratio (Etoc 100), of IC90 Value” [1] was 469.9 and the “Retention Time” value [2] was 26.4 min. The “vapor pressure compared with transfluthrin and d,d-T80-prallethrin” value [2] was “lower than transfluthrin, but higher than d,d-T80-prallethrin”, the “potency and retention of potency compared with transfluthrin” value [3] was “higher in potency and also longer in retention time than transfluthrin” and the KT50 ([3]; elapsed time 0 hr) was 8.64 min. The KT50 ([3]; elapsed time 168 hr) was 7.53 min, the KT50 ([3]; elapsed time 336 hr) was 7.77 min and the KT50 ([3]; elapsed time 504 hr) was 7.48 min. It also gave a KT50 ([3]; elapsed time 672 hr) of 6.45 min, a KT50 ([3]; elapsed time 864 hr) of 7.90 min and a KT50 ([3]; elapsed time 1056 hr) of 8.00 min. It also gave a KT50 ([3]; elapsed time 1200 hr) of 8.00 min, a KT50 ([3]; elapsed time 1344 hr) of 8.40 min and a KT50 ([3]; elapsed time 1536 hr) of 8.60 min. For the same molecule, the KT50 ([3]; elapsed time 1680 hr) was 9.60 min, the KT50 ([3]; elapsed time 1848 hr) was 10.40 min and the KT50 ([3]; elapsed time 2016 hr) was 9.87 min. The KT50 ([3]; elapsed time 2208 hr) was 11.70 min, the KT50 ([3]; elapsed time 2352 hr) was 10.80 min and the KT50 ([3]; elapsed time 2520 hr) was 12.00 min. The KT50 ([3]; elapsed time 2688 hr) was 12.70 min, the KT50 ([3]; elapsed time 2856 hr) was 13.50 min and the KT50 ([3]; elapsed time 3024 hr) was 14.90 min. For the same molecule, the KT50 ([3]; elapsed time 3192 hr) was 18.60 min, the KT50 ([3]; elapsed time 3360 hr) was 20.70 min and the KT50 ([3]; elapsed time 3528 hr) was 22.90 min. It also gave a KT50 ([3]; elapsed time 3696 hr) of 26.80 min, a KT50 ([3]; elapsed time 3864 hr) of 28.00 min and a KT50 ([3]; elapsed time 4032 hr) of 25.60 min. The KT50 ([3]; elapsed time 4200 hr) was 32.70 min.

With Cc1c(F)c(F)c(COC(=O)C2C(C=C(F)Cl)C2(C)C)c(F)c1F (centres unmarked) [Sample Chemical C, 2,3,5,6-tetrafluoro-4-methylbenzyl 3-(2-chloro-2-fluorovinyl)-2,2-dimethylcyclopropanecarboxylate] the “efficacy … compared with transfluthrin” value [1] was “more efficacious than transfluthrin”, the “Potency Ratio (Etoc 100), of IC50 Value” [1] was 130.6 and the “Potency Ratio (Etoc 100), of IC90 Value” [1] was 348.2. For the same molecule, the “Retention Time” value [2, 4] was 24.5 min, the “vapor pressure compared with transfluthrin and d,d-T80-prallethrin” value ([2]; from GC retention times) was “lower than transfluthrin, but higher than d,d-T80-prallethrin” and the “potency and retention of potency compared with transfluthrin” value [3] was “higher in potency and also longer in retention time than transfluthrin”. The KT50 ([3]; elapsed time 0 hr) was 5.53 min, the KT50 ([3]; elapsed time 168 hr) was 7.53 min and the KT50 ([3]; elapsed time 336 hr) was 7.55 min. It also gave a KT50 ([3]; elapsed time 504 hr) of 6.95 min, a KT50 ([3]; elapsed time 672 hr) of 7.98 min and a KT50 ([3]; elapsed time 864 hr) of 12.60 min. For the same molecule, the KT50 ([3]; elapsed time 1056 hr) was 10.70 min, the KT50 ([3]; elapsed time 1200 hr) was 11.50 min and the KT50 ([3]; elapsed time 1344 hr) was 12.60 min. It also gave a KT50 ([3]; elapsed time 1536 hr) of 15.90 min, a KT50 ([3]; elapsed time 1680 hr) of 20.70 min and a KT50 ([3]; elapsed time 1848 hr) of 25.90 min. For the same molecule, the KT50 ([3]; elapsed time 2016 hr) was 27.80 min and the KT50 ([3]; elapsed time 2208 hr) was 30.60 min.

For CC1(C)[C@H](C=C(Cl)Cl)[C@H]1C(=O)OCc1c(F)c(F)cc(F)c1F [Transfluthrin, reference compound], the “Potency Ratio (Etoc 100), of IC50 Value” [1] was 19.0, the “Potency Ratio (Etoc 100), of IC90 Value” [1] was 29.2 and the “Retention Time” value [2, 4] was 23.6 min. It also gave a KT50 ([3]; elapsed time 0 hr) of 11.10 min, a KT50 ([3]; elapsed time 168 hr) of 8.73 min and a KT50 ([3]; elapsed time 336 hr) of 9.17 min. For the same molecule, the KT50 ([3]; elapsed time 504 hr) was 13.40 min, the KT50 ([3]; elapsed time 672 hr) was 12.10 min and the KT50 ([3]; elapsed time 864 hr) was 17.20 min. It also gave a KT50 ([3]; elapsed time 1056 hr) of 15.60 min, a KT50 ([3]; elapsed time 1200 hr) of 20.40 min and a KT50 ([3]; elapsed time 1344 hr) of 18.80 min. It also gave a KT50 ([3]; elapsed time 1536 hr) of 28.10 min and a KT50 ([3]; elapsed time 1680 hr) of 30.40 min.
